From US7217564B2, “Cytotoxic assay and new established cell line of sturgeon origin” (priority 2002, dated 2007) come the findings set out here.

The subject of one test is STIP-1 cells. Put plainly: cells. Particulars: for EC50: read-out: EC50 (toxicity concentration value which effects on 50% of the cells); for toxicity ranking to the STIP-1 cells: within the tested series (nine heavy metals / twelve phenols). In kind it is cell-based, Bester (Huso huso X Acipenser ruthenus). The text has this:
(§1) The Alamar Blue assay is one of the bioassay methods being developed to measure the cellular metabolisms of the animal cells or the like. The Alamar Blue pigment is an oxidation-reduction pigment which should be incorporated in a cell for its reduction. The Alamar Blue pigment has the characteristics to be changed from an oxidation type (non-fluorescence/blue) to a reduction type (fluorescence/red) by the reduction reaction of the respiratory metabolism system done in mitochondria. If the cellular metabolism is normal, the reduction reaction proceeds in normal. On the other hand, if the cellular metabolism becomes abnormal, the oxidation type is remained as it is. Therefore, the abnormality of a cellular metabolism can be determined by measuring the change in color. Furthermore, the measurement of a cellular metabolism may be based on the fluorescence and the light absorption. In this case the fluorescence is monitored by an excitation wavelength of 530 nm to 560 nm and a detection wavelength of 590 nm, and the light absorption is monitored at wavelengths of 570 nm and 600 nm.
Cells were cultured in a 96-well microtiter plate in a CO2 incubator (air atmosphere) at 20° C. until it became confluent. The culture was performed using a culture medium prepared by adding 10% fetal bovine serum (FBS) (manufactured by Gibco Co., Ltd.), penicillin (10 unit/ml) and streptomycin (50 μg/ml) in a Leibovitz's L15 culture medium (manufactured by Gibco Co., Ltd.).
A 0.2M aqueous solution of a specimen (cadmium chloride, CdCl2.2H2O) was prepared and was then sterilized by passing through a filter of 0.2 μm in pore size to be preserved at 4° C. […] For a comparison example, the culture medium in the absence of the specimen was inoculated in a well. After 24 hours passed, an Alamar Blue pigment was added and an additional culture was continued for further 24 hours.
Subsequently, by using a microplate reader, the light absorbance of each well was measured using two wavelengths (570 nm and 600 nm). The inhibition value of a cellular metabolism with the cadmium aqueous solution was measured as a reduction rate of a well (a sample) inoculated with a cadmium aqueous solution to a well only containing the culture medium as a control. The calculation was performed using the following equation.
A=sample well (A570 nm−A600 nm)−blank well (A570 nm−A600 nm), and
B=control well (A570 nm−A600 nm)−blank well (A570 nm−A600 nm).
In addition, (A/B)×100 means a survival rate (%) of cells.
(B) Evaluations of toxicities of eight kinds of heavy metals except of cadmium to the STIP-1 cells were performed by the same way as described in the above (A).

For another test, the system named is STIP-3 cells. Put plainly: Cytotoxic test using STIP-3 cells, Alamar Blue assay. In kind it is cell-based, Bester (Huso huso X Acipenser ruthenus). To be noted: 20° C., 24 hours with specimen, then Alamar Blue for further 24 hours, read-out: EC50 (toxicity concentration value which effects on 50% of the cells).
Source text: as §1
Cells were cultured in a 96-well microtiter plate in a CO2 incubator (air atmosphere) at 20° C. until it became confluent. […]
Subsequently, by using a microplate reader, the light absorbance of each well was measured using two wavelengths (570 nm and 600 nm). […]
A general note: Alamar Blue is a resazurin reagent that responds to reducing activity.

Setting [1] is: Huso huso, STIP-1 cells, 20° C., 24 hours with specimen, then Alamar Blue for further 24 hours.
Where [2] appears, read: STIP-1 cells, 20° C., 24 hours with specimen, then Alamar Blue for further 24 hours.

Read-outs that look alike come from different tables or passages of the source. Bounds are passed on as bounds.

As to `Oc1c(Cl)cc(Cl)c(Cl)c1Cl` [2,3,4,6-tetrachlorophenol], in the test with STIP-1 cells (setting [1]), the EC50 was determined as 9 µM.
Regarding `Oc1cccc(Cl)c1Cl` [2,3-dichlorophenol], the EC50 with STIP-1 cells (setting [1]) is 80 µM.
Regarding `Oc1cc(Cl)c(Cl)cc1Cl` [2,4,5-trichlorophenol], the EC50 in the test with STIP-1 cells (setting [1]) is 7 µM. For the same molecule, the “toxicity ranking to the STIP-1 cells” value with STIP-1 cells was “strongest toxicity”.
For the molecule `Oc1ccc(Cl)cc1Cl` [2,4-dichlorophenol], the EC50 in the test on STIP-1 cells (setting [1]) came out at 55 µM.
As to `Oc1cc(Cl)ccc1Cl` [2,5-dichlorophenol], the EC50 in the test on STIP-1 cells (setting [1]) amounted to 56 µM.
For the molecule `Oc1c(Cl)cccc1Cl` [2,6-dichlorophenol], the EC50 in the test with STIP-1 cells (setting [1]) is 900 µM.
Turning to `Oc1ccc(Cl)c(Cl)c1` [3,4-dichlorophenol], the EC50 in the test with STIP-1 cells (setting [1]) is 30 µM.
Take `[Cl-].[Cl-].[Co+2]` [CoCl2.6H2O]: the EC50 with STIP-1 cells (setting [2]) was 2200 µM.
As to `[Cl][Cu][Cl]` [CuCl2.2H2O], the EC50 in the test with STIP-1 cells (setting [2]) was 1320 µM.
In the case of `O.O.O.O.[Cl][Mn][Cl]` [MnCl2.4H2O], in the test on STIP-1 cells, the “toxicity to the STIP-1 cells more than that to the culture cells of other fish origins” value is listed as “about 10 times” and the EC50 was 400 µM.
Turning to `[Cl][Ni][Cl]` [NiCl2.6H2O], the EC50 with STIP-1 cells was over 10000 µM.
Turning to `O=[N+]([O-])[O-].O=[N+]([O-])[O-].[Pb+2]` [Pb(NO3)2], in the test with STIP-1 cells (setting [2]), the EC50 was 3300 µM.
As for `Oc1c(Cl)c(Cl)c(Cl)c(Cl)c1Cl` [Pentachlorophenol], the EC50 in the test on STIP-1 cells (setting [1]) amounted to 90 µM.
For the molecule `Oc1ccccc1` [Phenol], in the test on STIP-1 cells (Huso huso, 24 h), the EC50 came out at 8600 µM.
Consider `O=S(=O)([O-])[O-].[Zn+2]` [ZnSO4.7H2O], for which the EC50 in the test with STIP-1 cells (setting [2]) was 400 µM.
Regarding `[Cl][Cd][Cl]` [cadmium, cadmium chloride], the EC50 worked out at 89 µM in the test on STIP-1 cells (setting [2]) and 100 µM in the test on STIP-3 cells.
For the molecule `Oc1ccc(Cl)cc1` [p-chlorophenol], in the test with STIP-1 cells (setting [1]), the EC50 worked out at 800 µM.
Regarding `O=[N+]([O-])c1ccc(O)cc1` [p-nitrophenol], the EC50 in the test on STIP-1 cells (setting [1]) was 350 µM.
Turning to HgCl2, the EC50 in the test with STIP-1 cells stood at 85 µM.
For the molecule Tributyl tin, the EC50 in the test with STIP-1 cells (STIP-1 cells, 20° C., 24 hours with specimen, then Alamar Blue for further 24 hours, listed as tributyl tin) turned out to be 0.9 µM; in the test on STIP-1 cells (setting [2]), 0.9 µM. For the same molecule, in the test with STIP-1 cells (STIP-1 cells, compared with other heavy metals), the “toxicity at a concentration lower than other heavy metals” value is given as “about 100 times”. Also, in the test with STIP-1 cells, the “toxicity ranking to the STIP-1 cells” value is on record as “strongest toxicity”.
